From patent US4335211A, “Process for producing optically active cephalosporin analogs” (Kyowa Hakko Kogyo Co., Ltd., priority 1979, dated 1982)

Assay: antimicrobial activity (statement in words)
Type: cell-based
Conditions: less polar isomer (A) versus more polar isomer (B)

Q: Which antimicrobial activity does the source give for `N[C@@H](C(=O)N[C@@H]1C(=O)N2C(C(=O)O)=C(Cl)CC[C@H]12)c1ccccc1` [Example 1, (6R, 7S) 7-(R)-phenylglycinamido-3-chloro-1-azabicyclo[4,2,0]oct-2-en-8-on-2-carboxylic acid] here?
A: greater antimicrobial activity
